Read-outs that look alike come from different tables or passages of the source.
What was measured:
[1] = target: human hepatitis B surface antigen (HBsAg) (Hepatitis B virus genotype C subtype adr, UniProt P12934); assay: Anti-HBsAg activity, HBsAg titer by chemiluminescent immunoassay; type: biochemical; conditions: 100 ppm; for HBsAg antigen titer: untreated 54 IU/ml
Experimental: For the antiviral testing, various concentrations of the chlorine dioxide solutions (agent A, agent B) were prepared and left in respective containers made of synthetic resin for 8 months. Specifically, each of the chlorine dioxide solutions obtained in each of Examples 1 and 2 was placed in a container having an opening with a diameter of 2 cm, and after closing a screw-cap, the container was left at room temperature for 8 months. Subsequently, an antiviral activity effect of the solution was examined. As controls, sodium hypochlorite (agent C), stabilized chlorine dioxide (sodium chlorite) (agent D), and povidone-iodine (agent E) were used. The agents C to E were not preserved for 8 months, and subjected to the test immediately after the purchase.
Each agent was added to human hepatitis B surface antigen (HBsAg), and after 1, 2, 3 or 4 days of sensitization, the agent was neutralized with a sodium thiosulfate solution, and HBsAg titer was measured using a chemiluminescent immunoassay “Architect-HBsAg (manufactured by Dainabot Co., Ltd.)”. An anti-HBsAg activity of the agent was evaluated.

[2] = system: canine parvovirus <CPV(Y-1)>; assay: Antiviral testing (canine parvovirus), TCID50 by swine hemagglutination test, CRFK cells; type: cell-based

Chain of human hepatitis B surface antigen (HBsAg) (P12934 whole entry): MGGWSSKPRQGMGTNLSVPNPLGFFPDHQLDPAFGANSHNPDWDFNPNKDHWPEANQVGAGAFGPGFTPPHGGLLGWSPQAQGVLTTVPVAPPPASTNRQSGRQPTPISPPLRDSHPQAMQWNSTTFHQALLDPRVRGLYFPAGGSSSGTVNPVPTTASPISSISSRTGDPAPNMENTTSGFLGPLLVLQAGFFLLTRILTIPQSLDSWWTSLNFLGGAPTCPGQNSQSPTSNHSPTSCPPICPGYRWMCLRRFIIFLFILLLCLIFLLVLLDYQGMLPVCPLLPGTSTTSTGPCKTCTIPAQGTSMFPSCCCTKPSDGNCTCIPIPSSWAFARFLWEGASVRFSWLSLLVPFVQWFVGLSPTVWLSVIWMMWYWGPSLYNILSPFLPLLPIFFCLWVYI

Row | Compound | anti-HBsAg activity ([1]; 1 to 4 days) | HBsAg antigen titer ([1]; sensitized time 1 day) | HBsAg antigen titer ([1]; sensitized time 2 days) | HBsAg antigen titer ([1]; sensitized time 3 days) | HBsAg antigen titer ([1]; sensitized time 4 days) | CPV infectivity titer remaining ([2]; 10 ppm, after 180 seconds) | decrease in CPV infectivity titer ([2]; 100 ppm, after 120 seconds) | decrease in CPV infectivity titer [2]
1 | OCl [sodium hypochlorite, Sodium hypochlorite] | absence of an anti-HBsAg activity | 50 IU/ml | 51 IU/ml | 51 IU/ml | 49 IU/ml | 100 TCID50 | ≥ 99.99% | 
2 | sodium chlorite [stabilized chlorine dioxide solution] |  |  |  |  |  |  |  | no decrease in the infectivity titer was observed
